Values after ≈ are worked out from the molar mass of the structure shown. Read-outs that look alike come from different tables or passages of the source.
Legend:
[1] = test system: Adult Nippostrongylus brasiliensis; experiment: In Vitro Assay 5: Nippostrongylus brasiliensis (NIPOBR), acetylcholine esterase readout; format: cell-based
Description: In Vitro Assay 5: Nippostrongylus Brasiliensis (NIPOBR)
Adult Nippostrongylus brasiliensis were washed with saline buffer containing 100 U/ml penicillin, 0.1 mg/ml streptomycin and 2.5 μg/ml amphotericin B. Test compounds were dissolved in DMSO and worms were incubated in medium in a final concentration of 10 μg/ml (10 ppm), 1 μg/ml (1 ppm) and 0.1 μg/ml (0.1 ppm) respectively. An aliquot of the medium was used to determine the acetylcholine esterase activity in comparison to a negative control. The principle of measuring acetylcholine esterase as readout for anthelmintic activity was described in Rapson et al (1986) and Rapson et al (1987).
Based on the evaluation of a wide concentration range, concentration-response curves as well as EC50-values were calculated.

[2] = target: D. immitis Slo-1 (Dirofilaria immitis, UniProt I0DFK5); experiment: In Vitro Assay 2: D. immitis Slo-1, membrane potential measurement in recombinant CHO cell line; format: cell-based
Sequence of D. immitis Slo-1 (I0DFK5 1-1119): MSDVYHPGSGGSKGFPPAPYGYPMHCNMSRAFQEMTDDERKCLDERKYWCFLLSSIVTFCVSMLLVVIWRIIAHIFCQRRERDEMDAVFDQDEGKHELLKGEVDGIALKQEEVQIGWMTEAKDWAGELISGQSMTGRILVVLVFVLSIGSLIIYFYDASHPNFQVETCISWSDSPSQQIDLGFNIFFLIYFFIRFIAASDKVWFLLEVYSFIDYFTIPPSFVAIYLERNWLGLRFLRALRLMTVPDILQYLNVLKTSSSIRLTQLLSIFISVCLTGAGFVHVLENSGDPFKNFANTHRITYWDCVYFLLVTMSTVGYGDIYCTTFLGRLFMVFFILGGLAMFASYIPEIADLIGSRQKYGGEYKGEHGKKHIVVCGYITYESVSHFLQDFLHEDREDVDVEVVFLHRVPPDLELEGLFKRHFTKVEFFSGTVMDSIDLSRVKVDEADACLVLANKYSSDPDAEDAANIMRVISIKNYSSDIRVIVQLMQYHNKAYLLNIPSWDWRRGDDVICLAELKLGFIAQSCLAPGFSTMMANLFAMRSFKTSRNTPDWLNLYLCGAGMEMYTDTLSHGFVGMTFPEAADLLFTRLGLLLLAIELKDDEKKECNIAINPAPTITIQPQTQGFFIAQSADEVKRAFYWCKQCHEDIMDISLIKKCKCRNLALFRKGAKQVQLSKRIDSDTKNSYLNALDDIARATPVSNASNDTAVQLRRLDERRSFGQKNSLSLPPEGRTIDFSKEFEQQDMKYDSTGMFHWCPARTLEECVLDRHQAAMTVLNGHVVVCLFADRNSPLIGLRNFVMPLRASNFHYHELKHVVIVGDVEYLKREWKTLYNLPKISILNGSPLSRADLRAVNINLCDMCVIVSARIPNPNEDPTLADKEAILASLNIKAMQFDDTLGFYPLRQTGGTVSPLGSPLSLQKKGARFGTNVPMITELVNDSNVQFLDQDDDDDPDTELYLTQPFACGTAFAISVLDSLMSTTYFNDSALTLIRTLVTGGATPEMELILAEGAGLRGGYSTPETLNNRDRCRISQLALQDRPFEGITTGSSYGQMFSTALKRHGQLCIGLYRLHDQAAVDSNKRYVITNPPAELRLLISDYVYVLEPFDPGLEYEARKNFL

[3] = test system: Dirofilaria immitis third-stage larvae; experiment: In Vitro Assay 4: Dirofilaria immitis (DIROIM L4) larval motility; format: cell-based; conditions: 72 h
[4] = target: C. elegans Slo-1a (Caenorhabditis elegans, UniProt Q95V25)
Sequence of C. elegans Slo-1a (Q95V25 whole entry): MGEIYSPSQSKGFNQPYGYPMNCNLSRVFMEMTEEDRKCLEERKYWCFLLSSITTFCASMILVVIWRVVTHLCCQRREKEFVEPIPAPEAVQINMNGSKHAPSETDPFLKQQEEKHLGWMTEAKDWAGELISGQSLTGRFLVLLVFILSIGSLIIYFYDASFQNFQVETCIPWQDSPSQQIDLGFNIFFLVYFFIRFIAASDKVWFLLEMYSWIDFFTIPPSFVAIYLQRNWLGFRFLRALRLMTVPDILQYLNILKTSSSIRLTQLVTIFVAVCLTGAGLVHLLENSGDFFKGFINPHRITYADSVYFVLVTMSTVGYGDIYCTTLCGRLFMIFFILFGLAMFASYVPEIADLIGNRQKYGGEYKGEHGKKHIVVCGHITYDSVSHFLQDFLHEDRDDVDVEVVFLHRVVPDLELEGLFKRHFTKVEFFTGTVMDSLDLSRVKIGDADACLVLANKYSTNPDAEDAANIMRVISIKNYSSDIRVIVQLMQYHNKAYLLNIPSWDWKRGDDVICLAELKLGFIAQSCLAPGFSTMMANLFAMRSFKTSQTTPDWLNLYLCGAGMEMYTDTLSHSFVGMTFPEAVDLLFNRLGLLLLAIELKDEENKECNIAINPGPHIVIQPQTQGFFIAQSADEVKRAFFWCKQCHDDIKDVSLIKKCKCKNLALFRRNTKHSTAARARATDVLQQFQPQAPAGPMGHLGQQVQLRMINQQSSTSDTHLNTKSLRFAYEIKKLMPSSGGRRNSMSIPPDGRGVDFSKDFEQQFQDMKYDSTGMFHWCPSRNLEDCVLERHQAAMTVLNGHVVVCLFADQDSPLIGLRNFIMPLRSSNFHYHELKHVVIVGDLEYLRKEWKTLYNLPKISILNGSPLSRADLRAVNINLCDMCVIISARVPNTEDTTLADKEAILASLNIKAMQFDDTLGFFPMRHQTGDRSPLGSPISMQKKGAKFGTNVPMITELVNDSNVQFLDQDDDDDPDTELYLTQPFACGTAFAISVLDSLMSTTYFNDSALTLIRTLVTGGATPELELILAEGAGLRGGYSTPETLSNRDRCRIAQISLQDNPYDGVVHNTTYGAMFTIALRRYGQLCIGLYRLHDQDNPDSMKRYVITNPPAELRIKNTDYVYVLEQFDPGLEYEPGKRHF
Description: For transfection with plasmid DNA to express C. elegans Slo-1a (accession number AAL28102) CHO cells were passaged to 40% confluence before adding the transfection solution to the cell culture. The transfection solution included 300 μL OptiMEM (Life Technologies, Nr.: 31985), 2 μL (=6 μg) of plasmid DNA containing the C. elegans Slo-1a gene and 9 μL FugeneHD (Promega, Nr.: E2311), and was added to the cells prior to incubation for 48 hours at 37° C., 5% CO2. The transfection medium was exchanged for the selection medium which contains additional G418 (2 mg/ml, Invitrogen, Nr.: 10131) and the cells were seeded into 384 well plates (300 cells/well). After a few weeks, the remaining surviving cells were tested with a voltage sensitive dye (Membrane Potential Assay Kit, Molecular Devices Nr.: R8034) for K+ channel expression. Positive cell clones were purified by the limited dilution technique. For this the clone with the highest and most robust signal in the voltage sensitive dye assay was further subcloned (incubated) in 384 well plates (0.7 cells/well) to obtain clonal purity. This generated a final stable CHO cell line expressing the C. elegans Slo-1a.
Cell culture conditions Cells were cultured at 37° C. and 5% CO2 in MEMalpha with Gutamax I (Invitrogen, Nr.: 32571), supplemented with 10% (v/v) heat inactivated fetal bovine serum (Invitrogen, Nr.: 10500), G418 (1 mg/ml, Invitrogen, Nr.: 10131). Cells were detached using Accutase (Sigma, Nr.: A6964).
Membrane Potential Measurements
Laboratory compound testing was performed on 384-well microtiter plates (MTPs, Greiner, Nr.: 781092). 8000 cells/well were plated onto 384-well MTPs and cultured for 20 to 24 hours at 37° C. and 5% CO2. After removal of the cell culture medium, the cells were washed once with tyrode (150 mM NaCl, 0.3 mM KCl, 2 mM CaCl2, 1 m M MgCl2, 0.8 mM NaH2PO4, 5 mM Glucose, 28 mM Hepes, pH 7.4) and then loaded with the voltage sensitive dye of the Membrane Potential Assay Kit diluted in tyrode for 1 h at room temperature. After starting the measurement of fluorescence using a FLIPR Tetra (Molecular Devices, Exc. 510-545 nm, Emm. 565-625 nm), test compounds were added followed by the addition of KCl tyrode (final assay concentration: 70 mM KCl, 2 mM CaCl2, 1 mM MgCl2, 0.8 mM NaH2PO4, 5 mM Glucose, 28 mM Hepes, pH 7.4, including the voltage sensitive dye). The measurement was completed after 7 minutes.
EC50 values were calculated using a four-parameter plotting by the Scilligence ELN/Regmol Software Tool, Bioassay.

[5] = test system: Dirofilaria immitis microfilariae; experiment: In Vitro Assay 3: Dirofilaria immitis microfilariae (DIROIM L1) motility; format: cell-based; conditions: 72 h
[6] = acetylcholine esterase activity in medium vs negative control, adult worms, read-out: EC50

SMILES | EC50 [1] | EC50 [2] | EC50 [3] | EC50 [1, 6] | EC50 [4] | EC50 [5]
CC(C)c1c(C(=O)NN2CCOc3ccccc32)sc2c(-c3cc(F)cc(F)c3F)ccnc12 [6,7] | < 0.1 µg/mL | – | – | – | – | –
CC(C)c1c(C(=O)NN2CCOc3ccccc32)sc2c(-c3cc(F)cc(F)c3F)cccc12 [Example 1.1, N-(2,3-dihydro-1,4-benzoxazin-4-yl)-3-isopropyl-7-(2,3,5-trifluorophenyl)benzo-thiophene-2-carboxamide] | – | > 1000 nM | < 0.1 µg/mL | 0.1 to 1 µg/mL (≈ 0.207 to 2.07 µM) | < 100 nM | < 0.1 µg/mL
O=C(NN1CCOc2ccccc21)c1sc2c(-c3cc(F)cc(F)c3F)nccc2c1N1CCOCC1 [Example 2.1, N-(2,3-Dihydro-1,4-benzoxazin-4-yl)-3-morpholino-7-(2,3,5-trifluorophenyl)thieno-[2,3-c]pyridine-2-carboxamide] | – | 100 to 1000 nM | 0.1 to 1 µg/mL (≈ 0.19 to 1.9 µM) | > 1 µg/mL | 100 to 1000 nM | 0.1 to 1 µg/mL (≈ 0.19 to 1.9 µM)
CC(C)c1c(C(=O)NN2CCOc3ccccc32)sc2c(-c3cc(F)cc(F)c3F)nccc12 [Example 2.2, N-(2,3-Dihydro-1,4-benzoxazin-4-yl)-3-isopropyl-7-(2,3,5-trifluorophenyl)-thieno[2,3-c]pyridine-2-carboxamide] | – | 100 to 1000 nM | < 0.1 µg/mL | 0.1 to 1 µg/mL (≈ 0.207 to 2.07 µM) | < 100 nM | < 0.1 µg/mL
Cc1nn2c(C(C)C)c(C(=O)NN3CCOc4ccccc43)cnc2c1-c1c(F)cccc1F [Example 3.1, 3-(2,6-Difluorophenyl)-N-(2,3-dihydro-1,4-benzoxazin-4-yl)-7-isopropyl-2-methyl-pyrazolo[1,5-a]pyrimidine-6-carboxamide] | – | 100 to 1000 nM | < 0.1 µg/mL | > 1 µg/mL | < 100 nM | < 0.1 µg/mL
Cc1nn2c(C(C)C)c(C(=O)NN3CCOc4ccccc43)sc2c1-c1cc(F)cc(F)c1F [Example 4.1, N-(2,3-Dihydro-1,4-benzoxazin-4-yl)-3-isopropyl-6-methyl-7-(2,3,5-trifluorophenyl)-pyrazolo[5,1-b]thiazole-2-carboxamide] | – | > 1000 nM | < 0.1 µg/mL | > 1 µg/mL | < 100 nM | 0.1 to 1 µg/mL (≈ 0.206 to 2.06 µM)
Cc1nn2c(N3CCOCC3)c(C(=O)NN3CCOc4ccccc43)sc2c1-c1cc(F)cc(F)c1F [Example 4.2, N-(2,3-Dihydro-4H-benzo[b][1,4]oxazin-4-yl)-6-methyl-3-morpholino-7-(2,3,5-trifluorophenyl)pyrazolo[5,1-b]thiazole-2-carboxamide] | – | > 1000 nM | < 0.1 µg/mL | 0.1 to 1 µg/mL (≈ 0.189 to 1.89 µM) | < 100 nM | < 0.1 µg/mL
Cc1nn2c(C(C)(C)O)c(C(=O)NN3CCOc4ccccc43)sc2c1-c1cc(F)cc(F)c1F [Example 4.3, N-(2,3-Dihydro-1,4-benzoxazin-4-yl)-3-(2-hydroxypropan-2-yl)-6-methyl-7-(2,3,5-trifluorophenyl)pyrazolo [3,2-b][1,3]thiazole-2-carboxamide] | – | 100 to 1000 nM | < 0.1 µg/mL | 0.1 to 1 µg/mL (≈ 0.199 to 1.99 µM) | < 100 nM | < 0.1 µg/mL
Cc1nn2c(C(C)C)c(C(=O)NN3CCOc4ccccc43)nnc2c1-c1c(F)cccc1F [Example 5.1, 8-(2,6-Difluorophenyl)-N-(2,3-dihydro-1,4-benzoxazin-4-yl)-4-isopropyl-7-methyl-pyrazolo[5,1-c][1,2,4]triazine-3-carboxamide] | – | > 1000 nM | 0.1 to 1 µg/mL (≈ 0.215 to 2.15 µM) | > 1 µg/mL | 100 to 1000 nM | < 0.1 µg/mL
CC(C)(O)c1c(C(=O)NN2CCOc3ccccc32)sc2c(-c3cc(F)cc(F)c3F)c(F)cnc12 [Example 6.1, N-(2,3-Dihydro-4H-benzo[b][1,4]oxazin-4-yl)-6-fluoro-3-(2-hydroxypropan-2-yl)-7-(2,3,5-trifluorophenyl)thieno[3,2-b]pyridine-2-carboxamide] | < 0.1 µg/mL | < 100 nM | < 0.1 µg/mL | – | < 100 nM | < 0.1 µg/mL
O=C(NN1CCOc2ccccc21)c1sc2c(-c3cc(F)cc(F)c3F)c(F)cnc2c1N1CC(F)C1 [Example 6.2, N-(2,3-dihydro-4H-benzo[b][1,4]oxazin-4-VI)-6-fluoro-3-(3-fluoroazetidin-1-yl)-7-(2,3,5-trifluorophenyl)thieno[3,2-b]pyridine-2-carboxamide] | – | > 1000 nM | 0.1 to 1 µg/mL (≈ 0.188 to 1.88 µM) | > 1 µg/mL | 100 to 1000 nM | < 0.1 µg/mL
CC(C)c1c(C(=O)NN2CCOc3ccccc32)sc2c(-c3cc(F)cc(F)c3F)c(F)cnc12 [Example 6.3, N-(2,3-Dihydro-4H-benzo[b][1,4]oxazin-4-yl)-6-fluoro-3-isopropyl-7-(2,3,5-trifluoro-phenyl)thieno[3,2-b]pyridine-2-carboxamide] | < 0.1 µg/mL | < 100 nM | < 0.1 µg/mL | – | < 100 nM | < 0.1 µg/mL
O=C(NN1CCOc2ccccc21)c1sc2c(-c3cc(F)cc(F)c3F)c(F)cnc2c1N1CCOCC1 [Example 6.4, N-(2,3-Dihydro-4H-benzo[b][1,4]oxazin-4-yl)-6-fluoro-3-morpholino-7-(2,3,5-trifluorophenyl)thieno[3,2-b]pyridine-2-carboxamide] | – | 100 to 1000 nM | < 0.1 µg/mL | 0.1 to 1 µg/mL (≈ 0.184 to 1.84 µM) | < 100 nM | < 0.1 µg/mL
CC(C)(O)c1c(C(=O)NN2CCOc3ccccc32)sc2c(-c3cc(F)cc(F)c3F)ccnc12 [Example 6.5, N-(2,3-Dihydro-4H-benzo[b][1,4]oxazin-4-yl)-3-(2-hydroxypropan-2-yl)-7-(2,3,5-trifluorophenyl)thieno[3,2-b]pyridine-2-carboxamide] | – | < 100 nM | < 0.1 µg/mL | 0.1 to 1 µg/mL (≈ 0.2 to 2 µM) | < 100 nM | < 0.1 µg/mL
O=C(NN1CCOc2ccccc21)c1sc2c(-c3cc(F)cc(F)c3F)ccnc2c1N1CC(F)C1 [Example 6.6, N-(2,3-dihydro-4H-benzo[b][1,4]oxazin-4-yl)-3-(3-fluoroazetidin-1-yl)-7-(2,3,5-trifluorophenyl)thieno[3,2-b]pyridine-2-carboxamide] | – | > 1000 nM | 0.1 to 1 µg/mL (≈ 0.194 to 1.94 µM) | > 1 µg/mL | 100 to 1000 nM | < 0.1 µg/mL
CC(C)c1c(C(=O)NN2CCOc3ccccc32)sc2c(-c3cc(F)cc(F)c3F)ccnc12 [Example 6.7, N-(2,3-Dihydro-4H-benzo[b][1,4]oxazin-4-yl)-3-isopropyl-7-(2,3,5-trifluorophenyl)-thieno [3,2-b]pyridine-2-carboxamide] | – | < 100 nM | < 0.1 µg/mL | – | < 100 nM | < 0.1 µg/mL
O=C(NN1CCOc2ccccc21)c1sc2c(-c3cc(F)cc(F)c3F)ccnc2c1N1CCOCC1 [Example 6.8, N-(2,3-Dihydro-4H-benzo[b][1,4]oxazin-4-yl)-3-morpholino-7-(2,3,5-trifluoro-phenyl)thieno[3,2-b]pyridine-2-carboxamide] | – | 100 to 1000 nM | < 0.1 µg/mL | > 1 µg/mL | < 100 nM | < 0.1 µg/mL
CC(C)c1c(C(=O)NN2CCOc3ccccc32)nc2c(-c3cc(F)cc(F)c3F)cccn12 [Example 7.1, N-(2,3-dihydro-4H-benzo[b][1,4]oxazin-4-yl)-3-isopropyl-8-(2,3,5-trifluoro-phenyl)imidazo[1,2-a]pyridine-2-carboxamide] | – | > 1000 nM | 0.1 to 1 µg/mL (≈ 0.214 to 2.14 µM) | > 1 µg/mL | > 1000 nM | 0.1 to 1 µg/mL (≈ 0.214 to 2.14 µM)
CC(C)c1c(C(=O)NN2CCOc3ccccc32)nc2c(-c3cc(F)cc(F)c3F)nccn12 [Example 8.1, N-(2,3-Dihydro-4H-benzo[b][1,4]oxazin-4-yl)-3-isopropyl-8-(2,3,5-trifluorophenyl)-imidazo[1,2-a]pyrazine-2-carboxamide] | – | > 1000 nM | 0.1 to 1 µg/mL (≈ 0.214 to 2.14 µM) | > 1 µg/mL | > 1000 nM | 0.1 to 1 µg/mL (≈ 0.214 to 2.14 µM)
Cc1cnc2c(C(C)C)c(C(=O)NN3CCOc4ccccc43)nn2c1-c1cc(F)cc(F)c1F [Example 9.1, N-(2,3-Dihydro-4H-benzo[b][1,4]oxazin-4-yl)-3-isopropyl-6-methyl-7-(2,3,5-trifluorophenyl)-pyrazolo[1,5-a]pyrimidine-2-carboxamide] | – | > 1000 nM | 0.1 to 1 µg/mL (≈ 0.208 to 2.08 µM) | > 1 µg/mL | > 1000 nM | < 0.1 µg/mL
CC(C)c1c(C(=O)NN2CCOc3ccccc32)n(C)c2c(-c3cc(F)cc(F)c3F)cccc12 [Example 17.2, N-(2,3-Dihydro-4H-benzo[b][1,4]oxazin-4-yl)-3-isopropyl-1-methyl-7-(2,3,5-trifluoro-phenyl)-1H-indole-2-carboxamide] | – | > 1000 nM | > 1 µg/mL | > 1 µg/mL | > 1000 nM | –
CN(C)c1c(C(=O)NN2CCOc3ccccc32)cnc2c1ccn2-c1cc(F)cc(F)c1F [Example 18.1, N-(2,3-Dihydro-4H-benzo[b][1,4]oxazin-4-yl)-4-(dimethylamino)-1-(2,3,5-trifluorophenyl)-1H-pyrrolo[2,3-b]pyridine-5-carboxamide] | – | > 1000 nM | < 0.1 µg/mL | > 1 µg/mL | 100 to 1000 nM | –
CC(C)c1c(C(=O)NN2CCOc3ccccc32)oc2c(-c3cc(F)cc(F)c3F)cccc12 [Example 19.1, N-(2,3-Dihydro-1,4-benzoxazin-4-yl)-3-(1-methylethyl)-7-[2,3,5-tris(fluoranyl)-phenyl]benzofuran-2-carboxamide] | – | – | < 0.1 µg/mL | 0.1 to 1 µg/mL (≈ 0.214 to 2.14 µM) | – | –

From patent US20240059680A1, “N-(2,3-DIHYDRO-1,4-BENZOXAZIN-4-YL)-3-ISOPROPYL-7-(2,3,5-TRIFLUOROPHENYL)BENZO-THIOPHENE-2-CARBOXAMIDE DERIVATIVES AND SIMILAR COMPOUNDS FOR THE TREATMENT OF HEARTWORM INFECTIONS” (ELANCO TIERGESUNDHEIT AG, priority 2020, published 2024)
